Results taken from US4178456A, “Prostenoic acids and esters” (American Cyanamid Company, priority 1977, dated 1979).

Tests used:
[1] = system: collagen induced platelet aggregation; experiment: Inhibition of Platelet Aggregation-In Vitro, collagen induced; assay type: cell-based, human; parameters: key: (-): Inhibition; (+): No Inhibition
From the text: (§1) It is well known that platelet aggregation inhibitors may be useful as anti-thrombotic drugs. Inhibition of platelet aggregation can be conveniently measured in vitro by monitoring changes in optical density and/or light transmission in platelet rich plasma upon addition of suitable aggregating agents such as adenosine diphosphate, epinephrine, thrombin or collagen. Alternatively, platelet aggregation can be measured in vitro using platelet rich plasma obtained at various time intervales from animals given inhibitors by an oral or parenteral route.
(§2) Human […] is incubated with modified Tyrode's solution in a proportion of 40-50% human […]. The test compounds are added at varying concentrations and after 5 minutes incubation, an aggregating agent such as adenosine diphosphate or collagen is added. The change in optical density (light transmission) is monitored by eye and inhibition is recorded as a (-) or lack of inhibition is recorded as a (+). Test compounds are considered active if they inhibit adenosine diphosphate or collagen induced aggregation at a concentration of 25 mcg/ml or less within 5-10 minutes.

[2] = system: adenosine diphosphate induced platelet aggregation; experiment: Inhibition of Platelet Aggregation-In Vitro, adenosine diphosphate induced; assay type: cell-based, human; parameters: key: (-): Inhibition; (+): No Inhibition
From the text: as §1, §2

[3] = system: bronchospasms elicited by acetylcholine; experiment: Bronchodilator Activity (Konzett procedure), acetylcholine; assay type: in vivo, guinea pigs; details: Cavia porcellus; three logarithmic cumulative intravenous doses
Procedure: (§3) Bronchodilator activity is determined in guinea pigs against bronchospasms elicited by intravenous injections of 5-hydroxytryptamine, histamine or acetylcholine by the Konzett procedure. [See J. Lulling, P. Lievens, F. El Sayed and J. Prignot, Arzeneimittel-Forschung, 18, 995 (1968).] In Table D, bronchodilator activity for representative compounds of this invention against one or more of the three spasmogenic agents is expressed as an ED50 determined from the results obtained with three logarithmic cumulative intravenous doses.

[4] = system: mean arterial blood pressure; experiment: Hypotensive Activity in anesthetized rats; assay type: in vivo, Male Wistar strain rats; details: dose 2.1 mg/kg, intravenous (jugular) infusion over one minute, 4 animals, urethane anesthesia
Procedure: This procedure is a modification of the technique described by Pike, et al., Prostaglandins, Nobel Symposium 2, Stockholm, June, 1966, pg. 165.
Male Wistar strain rats (Royal Hart Farms) averaging approximately 250 g in weight are fastened to rat boards in a supine position by means of canvas vests and limb ties. The animals are anesthetized with a 900 mg/kg intraperitoneal dose of urethane. The left carotid artery is cannulated with polyethylene 50 tubing to measure arterial blood pressure and the left external jugular vein is cannulated with polyethylene 50 tubing for drug infusion. The animals are allowed to equilibrate for 15-30 minutes. The test compound is infused in 0.5 ml of saline, over a one minute period, at the indicated dose level, using a Harvard model 940 infusion pump and a 6 cc syringe at speed 5. Each drug dose is flushed with 0.4 ml of saline. The mean arterial blood pressure is measured before and after drug administration using a Statham model P23Db pressure transducer and a Brush model 260 recorder. The percent depression in mean arterial blood pressure and the duration of at least a 10% depression induced by representative compounds of this invention are recorded in Table C.

[5] = system: bronchospasms elicited by histamine; experiment: Bronchodilator Activity (Konzett procedure), histamine; assay type: in vivo, guinea pigs; details: Cavia porcellus; three logarithmic cumulative intravenous doses
Procedure: as §3

[6] = system: bronchospasms elicited by 5-hydroxytryptamine; experiment: Bronchodilator Activity (Konzett procedure), 5-hydroxytryptamine; assay type: in vivo, guinea pigs; details: Cavia porcellus; three logarithmic cumulative intravenous doses
Procedure: as §3

SMILES	Inhibition of Platelet Aggregation, Collagen ([1]; drug concentration 0.25 ug/ml)	Inhibition of Platelet Aggregation, Collagen ([1]; drug concentration 2.5 ug/ml)	Inhibition of Platelet Aggregation, Collagen ([1]; drug concentration 25 ug/ml)	Inhibition of Platelet Aggregation, Collagen ([1]; drug concentration 250 ug/ml)	Inhibition of Platelet Aggregation, Adenosine Diphosphate ([2]; drug concentration 0.25 ug/ml)	Inhibition of Platelet Aggregation, Adenosine Diphosphate ([2]; drug concentration 2.5 ug/ml)	Inhibition of Platelet Aggregation, Adenosine Diphosphate ([2]; drug concentration 25 ug/ml)	Inhibition of Platelet Aggregation, Adenosine Diphosphate ([2]; drug concentration 250 ug/ml)	ED50 [3]	Duration in Minutes of at Least 10% Depression [4]	Percent Depression of Mean Arterial Blood Pressure [4]	ED50 [5]	ED50 [6]
O=C(O)CCC/C=C\C[C@@H]1[C@@H](/C=C/C2(O)CCCCC2)[C@H](O)C[C@@H]1O (relative stereo) [nat(and ent)-9α,11α,15-Trihydroxy-15,16-tetramethylene-17,18,19,20-tetranor-13-trans-5-cis-prostadienoic Acid]	(+)	(+)	(-)	(-)	(+)	(+)	(+)	(-)	–	–	–	–	–
O=C(O)CCCC=CCC1C(O)CC(=O)C1C=CC1(O)CCCCC1 (stereo not drawn) [nat(and ent)-9α,15-Dihydroxy-11-oxo-15,16-tetramethylene-17,18,19,20-tetranor-5-cis-13-trans-prostadienoic Acid]	(+)	(-)	(-)	(-)	–	–	(-)	(-)	> 3.2 µg/kg	> 20 min	-29%	> 3.2 µg/kg	0.253 µg/kg
